Key:
Type in all cases: cell-based, Human
[1] = test system: mesenchymal HCC cells with CAMK1D shRNAi knockdown; experiment: Drug sensitization in CAMK1D knockdown lines (Cell Titer Glo 2.0); settings: RNAi lines vs scramble control, 72 hours
From the text: The approach to validate the role AAK1 is represented schematically in FIG. 10A. As illustrated, the general workflow pipeline is to test the biological function of kinases and their interaction partners function in EMT and cancer therapy resistance. (1) Kinases and their interaction partners are depleted from cell lines using either small hairpin RNAs (shRNAs) or CRISPR/Cas9 knockout. (2) Effects of RNAi knockdown (KD) or CRISPR knockout (KO) are quantified on cellular signaling pathways using unbiased MS-based kinome-centric and global proteome and phosphoproteome profiling. (3) KD/KO effects on EMT state are studied by quantifying 12 well-known EMT and stemness markers such as CDH1, VIM, SNAI2 and TWIST1 using qPCR and western blotting. (4) KD/KO effects are confirmed/determined on cancer therapy resistance by treating KD/KO cell lines with 15 clinical and pre-clinical HCC drugs, quantifying cell viability using the Promega Cell Titer Glo 2.0 assay. […] (5) KD/KO effects are measured on cell migration and invasion by conducting trans-well migration and wound scratch assays. […]
Further analyses of CAMK1D were conducted to further investigate its role in EMT and potential therapeutic target. […] Phosphoproteins were quantified using global MS-based phosphoproteomics according to our previously published protocol. […]

[2] = test system: SNU449 cells; experiment: Inhibitor co-treatment growth inhibition (WZ4003 with AZD7762 or dinaciclib); settings: for dose dependence of the cotreatment effect: AZD7762 plus WZ4003; for decrease of EC50 on cotreatment with WZ4003: cotreatment with NUAK1/2 inhibitor WZ4003, 72 h, n=4
From the text: To identify combinatorial treatment strategies targeting mesenchymal and drug resistant HCC cells, the next step was to analyze drug sensitivity pathways that become activated upon AXL and NUAK1/2 inhibition and EMT reversal. […] It was also observed increased cell cycle activity among epithelial lines in the 17 HCC line panel (FIG. 9B), that was accompanied by elevated activity of kinases promoting DDR signaling and cell survival under conditions of replication stress. For instance, activation of CHEK1 and 2 along with increased phosphorylation of ATR, CHEK1/2 and WEE1 substrates were observed (FIGS. 4A and 9C). Similarly, AXL RNAi in FOCUS cells activated the DDR kinases CHEK1 and WEE1, increasing phosphorylation of their substrates CDK11B and CDK2 (FIGS. 4B and 9D). […] It was reasoned, therefore, that combinatorial inhibition of AXL or NUAK1/2, as well as cell cycle checkpoint kinases could efficiently kill mesenchymal HCC cells (FIG. 4D). To test this strategy, the mesenchymal and drug resistant SNU449 line was cotreated with the selective NUAK1/2 inhibitor WZ4003 (Banerjee, S., et al. (2014). Characterization of WZ4003 and HTH-01-015 as selective inhibitors of the LKB1-tumour-suppressor-activated NUAK kinases. Biochem J 457, 215-225, incorporated herein by reference in its entirety) and the CHEK1/2 inhibitor AZD7762. Additionally, the CDK inhibitor dinaciclib was used to test if elevated, EMT state-dependent, cell cycle activity translates into increased efficacy of such drugs. […] These encouraging results led to establishment of SNU449 NUAK1 or NUAK2 RNAi cells (FIG. 9E). Gratifyingly, treating SNU449 NUAK RNAi cells and WT controls with varying doses of AZD7762 and dinaciclib recapitulated the drug co-treatment results (˜3- to 4-fold decrease in EC50s, FIG. 4H). To consolidate these findings, the FOCUS NUAK and AXL RNAi cell lines were tested against AZD7762 and dinaciclib. As in SNU449 cells, NUAK1/2 RNAi FOCUS cells were sensitized to kinase inhibition up to ˜5-fold (FIG. 4I).
1800 cells/well were seeded onto white flat bottom half area 96-well plates (Greiner Bio-One, Kremsmuenster, AT) in 50 μl of growth medium and allowed to attach in an incubator for 24 h. Then the drugs in DMSO and/or DMSO vehicle controls as 11× solutions in growth medium were added to a total volume of 55 μl and 0.1% DMSO final. The cells were grown in an incubator for another 72 h. Then, 55 μl of CellTiter-Glo 2.0 (Promega, Madison, Wis.) reagent/well were added according to the manufacturer's instructions and luminescence was quantified with a SpectraMax 190 plate reader (Molecular Devices, San Jose, Calif.). The CHEK1/2 inhibitor AZD7762 (Selleckchem, Houston, Tex.) and the NUAK1/2 inhibitor WZ4003 (Tocris Bioscience, Minneapolis, Minn.) were applied at 8 different concentrations between 10 μM and 4.6 nM (3-fold dilution steps) and Dinaciclib (Selleckchem) was applied at 8 different concentrations between 1 μM and 0.5 nM (3-fold dilution steps). Experiments were performed in four biological replicates. Growth inhibition curves were fitted using the GraphPad Prism software package (V5.0a) with a least-squares nonlinear regression model for curve fitting (One site-Fit log IC50 function).

[3] = test system: FOCUS, SKHep1, SNU761 RNAi lines; experiment: Drug synergy in AAK1, RALBP1, REPS1, REPS2 knockdown lines (Cell Titer Glo 2.0); settings: RNAi lines vs scramble control, 72 hours
From the text: (1) Kinases and their interaction partners are depleted from cell lines using either small hairpin RNAs (shRNAs) or CRISPR/Cas9 knockout. […] This assay aims to discover drug synergies that may be exploited to develop novel combination therapies.
The next step was to assess the ability of an AAK1 knockdown to sensitize the cells to extant KI targeting therapeutics.

SMILES: NC(=O)Nc1cc(-c2cccc(F)c2)sc1C(=O)N[C@H]1CCCNC1 [AZD7762]
- effect of CAMK1D knockdown on drug treatment [1]: sensitizes
- dose dependence of the cotreatment effect [2]: dose-dependent
- decrease of EC50 on cotreatment with WZ4003 [2]: ~3 fold
- effect of knockdown of AAK1 and interaction partners on drug treatment [3]: sensitizes

SMILES: O=c1[nH]c2ccc(Cl)cc2c(N[C@@H]2CN3CCC2CC3)c1-c1nc2ccccc2[nH]1 [CHIR-124]
- effect of CAMK1D knockdown on drug treatment [1]: sensitizes
- effect of knockdown of AAK1 and interaction partners on drug treatment [3]: sensitizes

SMILES: CCC(=O)Nc1cccc(Oc2nc(Nc3ccc(N4CCN(C)CC4)cc3OC)ncc2Cl)c1 [WZ4003]
- significance of the cotreatment effect at low WZ4003 ([2]; 1 μM of WZ4003 with AZD7762): still significant
- dose dependence of the cotreatment effect [2]: dose-dependent

SMILES: CCc1cnn2c(NCc3ccc[n+]([O-])c3)cc(N3CCCC[C@H]3CCO)nc12 [dinaciclib, Dinaciclib]
- decrease of EC50 on cotreatment with WZ4003 [2]: ~2 fold

Source: patent US20210348171A1, “PHARMACOPROTEOMICS PLATFORM IDENTIFYING KINOME FEATURES REGULATING DRUG RESPONSE IN CANCER” (University of Washington, priority 2020, published 2021)
